# US20260021193A1, “IMMUNOCONJUGATES AND METHODS” (Immunome, Inc., priority 2022, published 2026)
# Tests used:
# [1] = system: MDA-MB-468; test: CTG assay of payloads, MDA-MB-468 cells; assay type: cell-based, human; settings: Homo sapiens, MDA-MB-468; Table 1; 72 h, CellTiter-Glo
# Description: (§1) The CTG assay is a method of determining the number of viable cells in culture based on quantitation of the ATP present, an indicator of metabolically active cells. The cell assay requires the addition of a single reagent, Cell Titer Glo, in which cells are lysed and generation of a luminescent signal is produced. The luminescent signal is proportional to the amount of ATP present. The amount of ATP is directly proportional to the number of cells present in culture. For this assay, cells were ensured to be in log-phase for either Jeko-1 or MDA-MB-468. Cells were transferred to 96 wells and treated with compounds in three-fold serial dilution starting from […] (10 points dilution), for 72 h. Cell viability was analyzed with CellTiter-Glo® Luminescent Cell Viability Assay (Promega) following manufactures' instruction. Percentage of viable cells in each compound concentration was determined by normalizing with the luminescence of vehicle control and plotted into percentage of viability versus dose response curve by nonlinear fit in GraphPad Prism software.
# [2] = Human hepatocyte clearance (HHEP CL); assay type: in vitro ADME; design: CLint scaled / half-life: dose or concentration left out as unconfirmed; settings: both sexes, human, hepatocytes
# Experimental: Suspensions of human hepatocytes (from 10 mixed gender human donors, final concentration 0.5×10^6 cell/mL) in Williams' E medium were incubated for 90 min with a test compound (0.90% acetonitrile and 0.10% DMSO, final concentration […]) and positive controls (7-Ethoxycoumarin, 7-Hydroxycoumarin, 0.90% acetonitrile and 0.10% DMSO, final concentration […]), with constant shaking at about 600 rpm at 37° C. in an incubator at 5% CO2 and 95% humidity. The total volume of incubation was 200 μl. A sample ([…]) was taken out at T0, 15, 30, 60 and 90 min, which was added intermediately to the ice-cold stop solution (acetonitrile with 200 ng/mL of to butamide and labetalol as internal standard) (125 μl), and vortexed at 500 rpm for 10 min, centrifuged at 3220×g for 20 min at 4° C. Analytical plates were sealed and stored at 4° C. until LCMS analysis. Viability of hepatocytes at pre-incubation was determined to be 84.5%.
# (§2) Human liver microsome clearance assay assess metabolism by the cytochrome P450 system (phase I enzymes). These enzymes oxidize substrates by incorporating oxygen atoms into hydrocarbons, thus causing the introduction of hydroxyl groups, or N- O- and S-dealkylation of substrates and forming more polar products easier to be cleared. Human hepatocyte clearance assay measures more broadly the overall cellular metabolism of the test compound (phase I and phase II enzyme pathways). Phase II enzymes catalyze the conjugation reaction of xenobiotic metabolites and charged species, such as glutathione, sulfate, glycine, or glucuronic acid to form even more polar compounds for easier clearance.
# [3] = Human liver microsome clearance (HLM CL); assay type: in vitro ADME; design: CLint scaled / half-life: dose or concentration left out as unconfirmed; settings: human, microsomes
# Experimental: Working solution was prepared by adding 5 μL of compound and control stock solution (10 mM in dimethyl sulfoxide, DMSO) to 495 μL of acetonitrile (ACN) (intermediate solution concentration: 100 μM, 99% CAN and 1% DMSO. The appropriate concentrations of microsome working solutions were prepared in 100 mM potassium phosphate buffer. After reaction plates containing mixtures of compound and microsomes were pre-incubated at 37° C. for 10 min, […] of 2 mM of NADPH and 2 mM of MgCl2 solution was added to start the reaction. The final concentrations of incubation medium were as follows: microsome—0.5 mg protein/mL, test compound/control […], NADPH—1 mM, MgCl2—1 mM, acetonitrile 0.99%, DMSO 0.01%. Incubations were performed at 37° C. for 60 min. Samples were taken out at T0, T5, T15, T30, T45 and T60, which was added intermediately to the ice-cold stop solution (acetonitrile with 200 ng/mL of to butamide and labetalol as internal standard) (125 μl), shaken for 10 min, centrifuged at 4000 rpm for 20 min at 4° C. Analytical plates were analyzed by LCMS.
# as §2
# [4] = PAMPA (Parallel Artificial Membrane Permeability Assay); assay type: physicochemical; design: dose or concentration left out as unconfirmed
# Description: PAMPA is a method which determines the permeability of substances from a donor compartment, through a lipid-infused artificial membrane into an acceptor compartment. See Ottaviani, G.; Martel, S.; Carrupt, P-A. “Parallel Artificial Membrane Permeability Assay: A New Membrane for the Fast Prediction of Passive Human Skin Permeability”, Journal of Medicinal Chemistry, 2006, 49 (13), 3948-3954). A multi-well microtitre plate is used for the donor and a membrane/acceptor compartment is placed on top; the whole assembly is commonly referred to as a “sandwich”. At the beginning of the test, the drug is added to the donor compartment, and the acceptor compartment is drug-free. After an incubation period which may include stirring, the sandwich is separated, and the amount of drug is measured in each compartment. Mass balance allows calculation of drug that remains in the membrane.
# The PAMPA was performed by Pion Inc using the GIT-0 lipid and 5 mM donor solution in pH 5.0 and pH 7.4 PRISMA buffer (containing 0.05% DMSO). The higher PAMPA data has been associated with better bystander killing. (Ogitani Y.; Hagihara K.; Oitate, M.; Naito, H.; Agatsuma T. “Bystander killing effect of DS-8201a, a novel anti-human epidermal growth factor receptor 2 antibody-drug conjugate, in tumors with human epidermal growth factor receptor 2 heterogeneity” Cancer Science, 2016, 107 (7), 1039-1046).
# [5] = system: Jeko-1; test: CTG assay of payloads, Jeko-1 cells; assay type: cell-based, human; settings: Homo sapiens, JeKo-1; Table 1; 72 h, CellTiter-Glo
# Description: as §1
SMILES,IC50 [1],CLint scaled [2],half-life [2],CLint scaled [3],half-life [3],Papp ([4]; pH 5),Papp ([4]; pH 7.4),IC50 [5]
"CC[C@@]1(O)C(=O)OCc2c1cc1n(c2=O)Cc2c-1nc1cc(F)c(C)c3c1c2[C@](C)(N1CC[C@H](O)C1)CC3 (single isomer, unassigned) [Compound 5-41]",92.2 nM,49.8 mL/min/kg,77 min,92.5 mL/min/kg,13.5 min,53.5 ×10⁻⁶ cm/s,6.6 ×10⁻⁶ cm/s,11.6 nM
"CC[C@@]1(O)C(=O)OCc2c1cc1n(c2=O)Cc2c-1nc1cc(F)c(C)c3c1c2[C@H](CO)CC3 (single isomer, unassigned) [Compound 1-16]",7.2 nM,33 mL/min/kg,117 min,44 mL/min/kg,28 min,40.4 ×10⁻⁶ cm/s,8.5 ×10⁻⁶ cm/s,0.79 nM
"CC[C@@]1(O)C(=O)OCc2c1cc1n(c2=O)Cc2c-1nc1cc(F)c(C)c3c1c2[C@](C)(N1CC[C@@H](O)C1)CC3 (single isomer, unassigned) [Compound 5-40]",69.1 nM,102 mL/min/kg,38 min,238 mL/min/kg,5.2 min,52.2 ×10⁻⁶ cm/s,6 ×10⁻⁶ cm/s,10 nM
"CC[C@@]1(O)C(=O)OCc2c1cc1n(c2=O)Cc2c-1nc1cc(F)c(C)c3c1c2[C@@H](CO)CC3 (single isomer, unassigned) [Compound 1-17]",7.7 nM,17.9 mL/min/kg,215 min,53.2 mL/min/kg,23.5 min,74.7 ×10⁻⁶ cm/s,7.8 ×10⁻⁶ cm/s,1 nM
"CC[C@@]1(O)C(=O)OCc2c1cc1n(c2=O)Cc2c-1nc1cc(F)c(C)c3c1c2[C@](C)(CO)CC3 (single isomer, unassigned) [Compound 3-27]",18.6 nM,62.4 mL/min/kg,62 min,128 mL/min/kg,9.7 min,62.2 ×10⁻⁶ cm/s,8.5 ×10⁻⁶ cm/s,2.1 nM
